Experimental data reported in patent US7875653B2, “Emulsion comprising 1,2-alkanediols and polar oil components” (Beiersdorf AG, priority 2005, dated 2011).

Test: Polarity: interfacial tension towards water
Format: physicochemical
Conditions: moderately polar lipids, between about 20 and about 30 mN/m
Description: Oils and fats differ from one another in their polarity, which is difficult to define. It has already been proposed to adopt the interfacial tension towards water as a measure of the polarity index of an oil or of an oil phase. The lower the interfacial tension between this oil phase and water, the greater the polarity of the oil phase in question. According to the present invention, the interfacial tension is regarded as one possible measure of the polarity of a given oil component.
The interfacial tension is the force which acts on an imaginary line one meter in length at the interface between two phases. The physical unit for this interfacial tension is conventionally calculated from the force/length relationship and is usually expressed in mN/m (millinewtons divided by meters). It has a positive sign if it tends to reduce the interface. In the converse case, it has a negative sign. For the purposes of the present invention, lipids are regarded as polar if their interfacial tension towards water is less than about 20 mN/m, and as nonpolar if their interfacial tension towards water is more than about 30 mN/m. Lipids with an interfacial tension towards water between about 20 and about 30 mN/m are generally referred to as moderately polar.

| Compound | Polarity (interfacial tension towards water) [mN/m] |
| --- | --- |
| CCCCCCCC(=O)OCCCCCCCC(C)C [Dermol 108, Isodecyl octanoate] | 29.6 |
| CC(C)CCCCCCCOC(=O)CC(C)CC(C)(C)C (stereo not shown) [Dermol 109, Isodecyl 3,5,5-trimethyl hexanoate] | 29.1 |
| CCCCCCCCCCC(CO)CCCCCCCC (stereo not shown) [Eutanol G, Octyldodecanol] | 24.8 |
| CCCCCCC(CCCC)C(=O)O (stereo not shown) [Isocarb 12, Butyl octanoic acid] | 22.1 |
| Isotridecyl 3,5,5 trimethyl hexanona-noate [Dermol 139] | 24.5 |

Results, then the compound that gave them:

| Polarity (interfacial tension towards water) [mN/m] | Compound |
| --- | --- |
| 29.9 | CC(C)CCCCCCCOC(=O)C(C)(C)C [DUB VCI 10, Isodecyl neopentanoate] |
| 26.2 | CCCCC(CC)C(=O)OCCC(C)CC(C)(C)C (stereo not shown) [Dermol 98, 2-Ethylhexanoic acid 3,5,5 trimethyl ester] |
| 29.7 | CCCCCCCCCC(=O)OCCCC(C)C [Dermol IHD, Isohexyl decanoate] |
| 29.2 | CCCCCCOCCCCCC [Dihexyl ether] |
| 21.9 | CCCCCCCCCCCCCCCCCC(=O)OC(C)C [Isopropyl stearate] |
| 22.1 | CCCCCCCCCCCCCC(=O)OCC(CCCCCCCC)CCCCCCCCCC (stereo not shown) [M.O.D., Octyldodecyl myristate] |
| 20.2 | CCCCCCCC(=O)OCC(COC(=O)CCCCCCC)OC(=O)CCCCCCC [Trivent OCG, Tricaprylin] |

Same assay, conditions: polar lipids, less than about 20 mN/m

| Compound | Polarity (interfacial tension towards water) [mN/m] |
| --- | --- |
| CCCCOC(=O)CCCCC(=O)OCCCC [Cetiol B, Dibutyl adipate] | 14.3 |
| PEG 2 Diethylene hexanoate [Dermol 488] | 10.1 |

Other lines, results leading:

| Polarity (interfacial tension towards water) [mN/m] | Compound |
| --- | --- |
| 17.8 | CCCCCCCCCCCCCCCCCCOC(=O)CCCCCC [Tegosoft SH, Stearyl heptanoate] |
| 2.4 | Triisostearin [Prisorine 2041 GTIS] |
